Reference: ChEMBL document CHEMBL3525932, “Comparison of metabolism of sesamin and episesamin by drug-metabolizing enzymes in human liver” (Drug Metab Dispos, 2012)

Assays:
[1] = target: T1, Cytochrome P450 2C19 (Homo sapiens, UniProt P33261); experiment: Activity of recombinant human CYP2C19 expressed in Saccharomyces cerevisiae AH22 cells assessed as enzyme-mediated compound formation treated with sesamin at 2 to 20 uM after 15 mins by HPLC analysis in presence of NADPH; type: ADME, cell-based; conditions: ah22, 0.25 h
[2] = target: T1, Cytochrome P450 2C19; experiment: Activity of recombinant human CYP2C19 expressed in Saccharomyces cerevisiae AH22 cells assessed as enzyme-mediated compound formation treated with episesamin at 2 to 75 uM after 15 mins by HPLC analysis in presence of NADPH; type: ADME, cell-based; conditions: ah22, 0.25 h
[3] = target: T2, Cytochrome P450 2C9 (Homo sapiens, UniProt P11712); experiment: Activity of recombinant human CYP2C9 expressed in Saccharomyces cerevisiae AH22 cells assessed as enzyme-mediated compound formation treated with (S)-episesamin monocatechol at 1 to 30 uM after 15 mins by HPLC analysis in presence of NADPH; type: ADME, cell-based; conditions: ah22, 0.25 h
[4] = target: T2, Cytochrome P450 2C9; experiment: Activity of recombinant human CYP2C9 expressed in Saccharomyces cerevisiae AH22 cells assessed as enzyme-mediated compound formation treated with (R)-episesamin monocatechol at 1 to 30 uM after 15 mins by HPLC analysis in presence of NADPH; type: ADME, cell-based; conditions: ah22, 0.25 h
[5] = target: T3, Cytochrome P450 1A2 (Homo sapiens, UniProt P05177); experiment: Activity of recombinant human CYP1A2 expressed in Saccharomyces cerevisiae AH22 cells assessed as enzyme-mediated compound formation treated with (R)-episesamin monocatechol at 1 to 30 uM after 15 mins by HPLC analysis in presence of NADPH; type: ADME, cell-based; conditions: ah22, 0.25 h
T3 sequence (P05177 whole entry): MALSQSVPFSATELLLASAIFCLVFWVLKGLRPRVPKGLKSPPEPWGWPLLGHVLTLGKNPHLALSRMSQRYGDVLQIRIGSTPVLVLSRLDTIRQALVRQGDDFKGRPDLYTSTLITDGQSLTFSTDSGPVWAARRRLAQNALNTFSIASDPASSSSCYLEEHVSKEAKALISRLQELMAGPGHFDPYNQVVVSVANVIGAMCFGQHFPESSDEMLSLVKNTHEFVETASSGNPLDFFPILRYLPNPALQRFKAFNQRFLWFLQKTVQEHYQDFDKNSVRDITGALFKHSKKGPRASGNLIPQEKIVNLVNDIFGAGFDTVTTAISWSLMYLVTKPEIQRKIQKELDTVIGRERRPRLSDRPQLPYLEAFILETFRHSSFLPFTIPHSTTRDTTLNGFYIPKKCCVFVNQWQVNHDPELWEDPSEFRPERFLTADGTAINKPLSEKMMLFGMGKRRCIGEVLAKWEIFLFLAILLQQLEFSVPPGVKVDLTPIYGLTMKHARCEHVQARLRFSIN

[6] = target: T3, Cytochrome P450 1A2; experiment: Activity of recombinant human CYP1A2 expressed in Saccharomyces cerevisiae AH22 cells assessed as enzyme-mediated compound formation treated with (S)-episesamin monocatechol at 1 to 30 uM after 15 mins by HPLC analysis in presence of NADPH; type: ADME, cell-based; conditions: ah22, 0.25 h
[7] = tested on: Liver microsome; experiment: Drug level in human liver microsomes treated with episesamin at 5 uM after 30 mins by HPLC analysis in presence of NADPH; type: ADME; conditions: 0.5 h
[8] = target: T1, Cytochrome P450 2C19; experiment: Activity of recombinant human CYP2C19 expressed in Saccharomyces cerevisiae AH22 cells assessed as enzyme-mediated episesamin dicatechol formation after 15 mins by HPLC analysis in presence of NADPH; type: ADME, cell-based; conditions: ah22, 0.25 h
[9] = target: T2, Cytochrome P450 2C9; experiment: Activity of recombinant human CYP2C9 expressed in Saccharomyces cerevisiae AH22 cells assessed as enzyme-mediated episesamin dicatechol formation after 15 mins by HPLC analysis in presence of NADPH; type: ADME, cell-based; conditions: ah22, 0.25 h
[10] = target: T3, Cytochrome P450 1A2; experiment: Activity of recombinant human CYP1A2 expressed in Saccharomyces cerevisiae AH22 cells assessed as enzyme-mediated episesamin dicatechol formation after 15 mins by HPLC analysis in presence of NADPH; type: ADME, cell-based; conditions: ah22, 0.25 h
[11] = target: T4, UDP-glucuronosyltransferase 2B7 (Homo sapiens, UniProt P16662); experiment: Activity of recombinant human UGT2B7 expressed in baculovirus infected insect cells assessed as enzyme-mediated glucuronidation at 1 to 30 uM after 10 to 30 mins by HPLC analysis in presence of UDP-GlcUA; type: ADME
T4 sequence (P16662 whole entry): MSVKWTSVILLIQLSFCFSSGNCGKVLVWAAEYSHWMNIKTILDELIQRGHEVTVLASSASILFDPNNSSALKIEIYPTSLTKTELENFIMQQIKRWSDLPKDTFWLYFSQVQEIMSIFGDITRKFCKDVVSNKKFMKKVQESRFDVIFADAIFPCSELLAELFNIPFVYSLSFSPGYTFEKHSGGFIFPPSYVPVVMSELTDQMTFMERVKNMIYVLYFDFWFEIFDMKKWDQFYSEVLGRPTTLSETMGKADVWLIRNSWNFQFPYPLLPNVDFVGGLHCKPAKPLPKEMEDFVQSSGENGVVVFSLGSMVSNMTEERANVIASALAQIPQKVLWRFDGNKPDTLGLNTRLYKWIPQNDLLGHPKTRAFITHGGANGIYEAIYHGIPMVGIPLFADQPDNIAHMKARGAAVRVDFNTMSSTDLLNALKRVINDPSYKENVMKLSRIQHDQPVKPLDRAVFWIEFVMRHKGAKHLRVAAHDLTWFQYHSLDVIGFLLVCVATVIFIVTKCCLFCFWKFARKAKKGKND

[12] = tested on: Liver microsome; experiment: Drug level in human liver microsomes treated with episesamin at 2 to 75 uM after 15 mins by HPLC analysis in presence of NADPH; type: ADME; conditions: 0.25 h
[13] = tested on: CYP450; experiment: Drug metabolism in human liver microsomes assessed as CYP450-mediated catecholization after 10 to 30 mins by HPLC analysis in presence of NADPH; type: ADME
[14] = tested on: UGT; experiment: Drug metabolism in human liver microsomes assessed as UGT-mediated glucuronidation after 10 to 30 mins by HPLC analysis in presence of UDP-GlcUA; type: ADME
[15] = Drug metabolism in human liver microsomes assessed as UGT-mediated glucuronidation per mg of protein after 10 to 30 mins by HPLC analysis in presence of UDP-GlcUA; type: ADME
[16] = Drug metabolism in human liver microsomes assessed as CYP450-mediated catecholization per mg of protein after 10 to 30 mins by HPLC analysis in presence of NADPH; type: ADME
[17] = tested on: CYP450; experiment: Drug metabolism in Sprague-Dawley rat liver microsomes assessed as CYP450-mediated catecholization after 10 to 30 mins by HPLC analysis in presence of NADPH; type: ADME
[18] = Drug metabolism in Sprague-Dawley rat liver microsomes assessed as CYP450-mediated catecholization per mg of protein after 10 to 30 mins by HPLC analysis in presence of NADPH; type: ADME
[19] = Drug metabolism in Sprague-Dawley rat liver microsomes assessed as UGT-mediated glucuronidation per mg of protein after 10 to 30 mins by HPLC analysis in presence of UDP-GlcUA; type: ADME
[20] = tested on: UGT; experiment: Drug metabolism in Sprague-Dawley rat liver microsomes assessed as UGT-mediated glucuronidation after 10 to 30 mins by HPLC analysis in presence of UDP-GlcUA; type: ADME
[21] = target: T3, Cytochrome P450 1A2; experiment: Activity of recombinant human CYP1A2 expressed in Saccharomyces cerevisiae AH22 cells assessed as enzyme-mediated compound formation treated with episesamin at 2 to 75 uM after 15 mins by HPLC analysis in presence of NADPH; type: ADME, cell-based; conditions: ah22, 0.25 h
[22] = target: T2, Cytochrome P450 2C9; experiment: Activity of recombinant human CYP2C9 expressed in Saccharomyces cerevisiae AH22 cells assessed as enzyme-mediated compound formation treated with episesamin at 2 to 75 uM after 15 mins by HPLC analysis in presence of NADPH; type: ADME, cell-based; conditions: ah22, 0.25 h

T2 sequence (P11712 whole entry): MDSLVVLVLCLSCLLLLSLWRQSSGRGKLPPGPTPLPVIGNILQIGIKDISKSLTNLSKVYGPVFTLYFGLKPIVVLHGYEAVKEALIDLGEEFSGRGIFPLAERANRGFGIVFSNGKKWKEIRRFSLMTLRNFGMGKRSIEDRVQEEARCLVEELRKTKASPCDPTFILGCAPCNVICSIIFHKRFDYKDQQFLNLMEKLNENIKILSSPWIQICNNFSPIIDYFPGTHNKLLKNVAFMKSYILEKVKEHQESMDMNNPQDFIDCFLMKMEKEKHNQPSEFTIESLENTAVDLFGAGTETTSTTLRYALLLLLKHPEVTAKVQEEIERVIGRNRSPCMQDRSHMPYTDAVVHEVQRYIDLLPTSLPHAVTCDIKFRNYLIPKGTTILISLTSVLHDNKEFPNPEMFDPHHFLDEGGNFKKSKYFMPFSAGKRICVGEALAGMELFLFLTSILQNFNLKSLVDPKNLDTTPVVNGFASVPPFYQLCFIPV
T1 sequence (P33261 whole entry): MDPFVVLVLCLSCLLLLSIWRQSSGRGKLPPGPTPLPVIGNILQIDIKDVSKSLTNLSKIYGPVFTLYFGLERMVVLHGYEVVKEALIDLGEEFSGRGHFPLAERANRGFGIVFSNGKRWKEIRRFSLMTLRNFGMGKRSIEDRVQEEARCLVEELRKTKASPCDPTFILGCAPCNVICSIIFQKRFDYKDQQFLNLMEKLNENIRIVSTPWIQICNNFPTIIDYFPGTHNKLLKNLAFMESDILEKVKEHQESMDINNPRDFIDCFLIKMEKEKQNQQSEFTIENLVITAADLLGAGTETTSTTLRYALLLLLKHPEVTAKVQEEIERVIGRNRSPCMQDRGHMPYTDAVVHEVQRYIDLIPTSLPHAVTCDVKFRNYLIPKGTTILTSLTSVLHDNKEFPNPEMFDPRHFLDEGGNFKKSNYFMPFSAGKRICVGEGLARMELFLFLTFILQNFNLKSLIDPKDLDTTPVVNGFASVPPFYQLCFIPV

Drug metabolism [2] | Drug metabolism [7] | Drug metabolism [8] [nmol/min] | Drug metabolism [9] [nmol/min] | Drug metabolism [10] [nmol/min] | Drug metabolism [11] | Drug metabolism [12] | Km [13] [µM] | Km [14] [µM] | Vmax [15] [nmol/min/mg] | Vmax [16] [nmol/min/mg] | Km [17] [µM] | Vmax [19] [nmol/min/mg] | Km [20] [µM] | also measured | Structure (SMILES)
– | – | – | – | – | – | – | – | – | – | – | – | – | – | Drug metabolism [1]: metabolite_detected | Oc1ccc([C@H]2OC[C@H]3[C@@H]2CO[C@@H]3c2ccc(O)c(O)c2)cc1O
metabolite_detected | – | – | – | – | – | – | – | – | – | – | – | – | – | Drug metabolism [3]: metabolite_detected; Drug metabolism [4]: metabolite_detected; Drug metabolism [5]: metabolite_detected; Drug metabolism [6]: metabolite_detected | Oc1ccc([C@H]2OC[C@H]3[C@@H]2CO[C@H]3c2ccc(O)c(O)c2)cc1O
metabolite_detected | metabolite_detected | 9.4 | 0.19 | 0.38 | metabolite_detected | metabolite_detected | 4.1 | 9.9 | 0.55 | 0.28 | 2.9 | 4.4 | 16.8 | Vmax [18]: 1.9 nmol/min/mg | Oc1ccc([C@H]2OC[C@H]3[C@@H]2CO[C@H]3c2ccc3c(c2)OCO3)cc1O
metabolite_detected | metabolite_detected | 9.4 | 0.19 | 0.38 | metabolite_detected | metabolite_detected | 1.8 | 8.6 | 0.68 | 0.15 | 8.7 | 0.55 | 9.9 | Drug metabolism [21]: metabolite_detected; Drug metabolism [22]: metabolite_detected | Oc1ccc([C@@H]2OC[C@H]3[C@@H]2CO[C@@H]3c2ccc3c(c2)OCO3)cc1O
